{"source": "paper PMC6402482", "about": "(ACS chemical biology, 2018)", "key": {"primary cortical neurons [1]": {"tested_on": "primary cortical neurons", "experiment": "Mitochondrial and cytosolic NAD+ 24 h after OGD", "format": "cell-based, rat", "conditions": "10 nM, n = 6/group"}, "[2]": {"tested_on": "rat primary cortical neurons", "experiment": "Cytotoxicity in primary cortical neurons, LDH release at 24 h", "format": "cell-based", "conditions": "n = 6/group"}, "[3]": {"experiment": "Comet tail intensity assay of DNA damage and repair after H2O2", "format": "cell-based, mouse", "conditions": "10 µM, 200 µM H2O2, repair over 30 min"}, "active PARP1 enzyme": {"target": "active PARP1 enzyme (Homo sapiens, UniProt P09874)", "sequence (P09874 whole entry)": "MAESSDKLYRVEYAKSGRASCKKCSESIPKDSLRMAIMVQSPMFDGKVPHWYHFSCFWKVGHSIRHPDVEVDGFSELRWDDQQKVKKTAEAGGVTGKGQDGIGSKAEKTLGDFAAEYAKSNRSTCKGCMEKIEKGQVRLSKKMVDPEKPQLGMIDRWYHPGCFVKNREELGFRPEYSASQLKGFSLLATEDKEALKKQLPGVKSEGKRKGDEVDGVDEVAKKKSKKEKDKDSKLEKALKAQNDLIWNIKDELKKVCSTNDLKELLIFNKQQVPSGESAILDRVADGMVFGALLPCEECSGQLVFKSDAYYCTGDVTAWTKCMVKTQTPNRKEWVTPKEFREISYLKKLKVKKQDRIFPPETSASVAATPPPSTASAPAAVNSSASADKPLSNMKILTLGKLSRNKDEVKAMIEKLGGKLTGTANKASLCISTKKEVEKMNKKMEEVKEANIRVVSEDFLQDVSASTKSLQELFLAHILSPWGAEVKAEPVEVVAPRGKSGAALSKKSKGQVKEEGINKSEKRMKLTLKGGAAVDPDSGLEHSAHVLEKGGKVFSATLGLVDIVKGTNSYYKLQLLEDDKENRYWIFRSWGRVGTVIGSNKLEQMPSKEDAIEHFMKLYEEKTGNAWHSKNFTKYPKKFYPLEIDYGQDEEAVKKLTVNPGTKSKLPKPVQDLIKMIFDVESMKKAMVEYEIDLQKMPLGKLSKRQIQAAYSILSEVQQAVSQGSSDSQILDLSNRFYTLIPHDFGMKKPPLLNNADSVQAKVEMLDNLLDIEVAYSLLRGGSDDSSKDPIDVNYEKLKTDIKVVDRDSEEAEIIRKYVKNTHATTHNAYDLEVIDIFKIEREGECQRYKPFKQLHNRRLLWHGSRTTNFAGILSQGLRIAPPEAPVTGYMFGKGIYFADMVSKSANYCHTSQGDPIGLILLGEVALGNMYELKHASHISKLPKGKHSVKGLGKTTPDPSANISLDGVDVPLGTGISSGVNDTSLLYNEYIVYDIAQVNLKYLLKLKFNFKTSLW", "experiment": "PARP1 enzyme inhibition ex vivo", "conditions": "0–100 nM on active PARP1 enzyme (10 U), triplicate"}, "primary cortical neurons [4]": {"tested_on": "primary cortical neurons", "experiment": "Oxygen-glucose deprivation", "format": "cell-based, rat", "conditions": "concentrations >100 nM"}, "cancer cell lines": {"tested_on": "cancer cell lines", "conditions": "most cancer cell lines; cited from earlier work"}, "[5]": {"experiment": "Glutamate-induced ferroptotic cell death in HT22 cells, LDH release at 24 h", "format": "cell-based, mouse", "conditions": "5 mM glutamate, LDH at 24 h, n = 5/group"}}}
{"smiles": "C[C@@]1(c2nc3c(C(N)=O)cccc3[nH]2)CCCN1", "note": "[veliparib, 2-[(S)-2-methylpyrrolidin-2-yl]-1H-benzimidazole-4-carboxamide]", "values": [{"measurement": "Mitochondrial NAD+ stores after OGD", "setting": "primary cortical neurons [1]", "value": "preserved"}, {"measurement": "Concentration at which neurotoxicity (defined as >10% cell death) was seen", "setting": "[2]", "value": 1000, "unit": "nM"}, {"measurement": "Effect on DNA repair after H2O2", "setting": "[3]", "value": "impeded DNA repair"}, {"measurement": "PARP1 inhibition, veliparib versus XJB-veliparib", "setting": "active PARP1 enzyme", "value": "similar"}, {"measurement": "Protection against OGD at higher concentrations", "setting": "primary cortical neurons [4]", "value": "no additional protection"}, {"measurement": "Tumoricidal concentration", "setting": "cancer cell lines", "value": "> 100", "unit": "µM"}, {"measurement": "Inhibition of glutamate-induced ferroptosis", "setting": "[5]", "value": "inhibit glutamate-induced ferroptosis"}]}
